From PMC3459870, “Hit-to-Lead Development of the Chamigrane Endoperoxide Merulin A for the Treatment of African Sleeping Sickness” (PLoS ONE, 2012)
Where two headings read alike, the source gives them in different places.

Columns and labels:
[1] = system: T98-G cells; test: Glioblastoma toxicity screening assay (nuclei count by imaging, 17 h); assay type: cell-based; details: Homo sapiens, T98G; Figure 4
Experimental: (§1) T98-G cells (ATTC number: CRL-1690) were plated at a density of 2,000 cells per well into two 384 well clear bottom plates (Costar 3712) in DMEM with 10% FBS. After 24 hours incubation at 37°C with 5% CO2 the cells were pinned with 200 nL of a two-fold serial dilution of merulin analogues. After 17 hours of treatment at 37°C in 5% CO2 the plates were fixed with 4% formaldehyde and washed with PBS (BioTek ELx405). After 10 minutes in PBS with 0.5% TritonX-100 each plate was washed and blocked with 2% Bovine Serum Albumin in PBS. Nuclei were stained with Hoechst 33342 then washed and placed in 40 µL of PBS with 0.1% sodium azide. Plates were imaged using the ImageXpress Micro epifluorescent scope (Molecular Devices). MetaXpress software was used to quantify total number of cells and IC50s were calculated using Prism (GraphPad).

[2] = system: Trypanosoma brucei brucei strain 427–221; test: Trypanosome screening assay (CellTiter-Glo ATP bioluminescence, 48 h); assay type: cell-based; details: for IC50: Trypanosoma brucei
Experimental: Trypanosoma brucei brucei strain 427–221 were grown at 37°C, 5% CO2 in HMI-9 medium containing 10% Fetal Bovine Serum, 10% Serum Plus (JRH Inc., Lenexa, KS,USA) and penicillin/streptomycin.
T.b.b. 427–221 were diluted to 2.10^4 per ml in complete HMI-9 medium and aliquoted in Greiner sterile 384-well flat white opaque culture plates using a WellMate cell dispenser from Matrix Tech. (Hudson, NH, USA). Test compounds were serially diluted in dimethyl sulfoxide (DMSO) and added to the assay plates with the robotic dispenser Biomek FXp liquid handler (Beckman Coulter). Thimerosal (2 µM final concentration) was added as a positive control and DMSO as a negative control (1% final concentration). Trypanosomes were incubated with compounds for 48 hours at 37°C with 5% CO2 before monitoring cell viability as previously described. Briefly, trypanosomes were lysed in the wells by adding 25 µL of CellTiter-GloTM (Promega). The lysed trypanosomes were placed on an orbital shaker at room temperature for 2 minutes. After lysis, the resulting ATP-bioluminescence was measured at room temperature using an Analyst HT plate reader (Molecular Devices). Percentage inhibition of parasite growth was calculated for each well as [1−(RLUx−RLU+)/(RLU−−RLU+)]*100 where RLUx, RLU+ and RLU− are respectively the Relative Light Units for each well, positive (thimerosal) and negative (DMSO) controls. A screening window coefficient, denoted Z′ factor, was used to evaluate the performance of the assay. The Z′ factor, calculated as 1−(3σc++3σc−)/(μc+−μc−) where σc+, σc−, μc+ and μc− are respectively the standard deviation and mean values of positive and negative controls, is reflective of the assay signal dynamic range and the data variation associated with signal measurement. IC50's were calculated using Prism (GraphPad).

[3] = system: HeLa cells; test: HeLa toxicity screening assay (nuclei count by imaging, 17 h); assay type: cell-based, human; details: Homo sapiens, HeLa; Figure 4
Experimental: as §1, with “HeLa” for “T98-G”, “cells” for “cells (ATTC number: CRL-1690)”

[4] = Figure 4, bloodstream form, read-out: T.b.b IC50
[5] = text and Figures 1, 3, bloodstream form, read-out: IC50 against T. brucei brucei

SMILES | IC50 [2, 4] [µM] | IC50 [2, 5] [µM] | IC50 ([2]; Table 3, read-out: T.b.b IC50) [µM] | IC50 [1] [µM] | IC50 [3] [µM] | activity against T. brucei brucei in words ([2]; initial SAR series)
CC1(C)CC[C@@H](O)[C@@]2(C)OO[C@H]3C[C@@]12CC[C@H]3O [compound 8, (3S,4R,6aS,10R,10aS)-7,7,10a-trimethyloctahydro-3H-3,6a-methanobenzo[c][1,2]dioxocine-4,10-diol] | – | > 50 | – | – | – | –
CC1(C)CCC(=O)[C@@]2(C)OO[C@H]3C[C@@]12CC[C@H]3OC(=O)c1ccc2c(c1)OCCO2 [compound 13, (3S,4R,6aS,10aS)-7,7,10a-trimethyl-10-oxooctahydro-3H-3,6a-methanobenzo[c][1,2]dioxocin-4-yl 2,3-dihydrobenzo[b][1,4]dioxine-6-carboxylate] | 0.26 | – | – | > 50 | 28 | –
Cc1ncc(C(=O)O[C@@H]2CC[C@@]34C[C@@H]2OO[C@]3(C)C(=O)CCC4(C)C)s1 [compound 18, (3S,4R,6aS,10aS)-7,7,10a-trimethyl-10-oxooctahydro-3H-3,6a-methanobenzo[c][1,2]dioxocin-4-yl 2-methylthiazole-5-carboxylate] | 0.7 | – | – | > 50 | > 50 | –
CC1(C)CCC(=O)[C@@]2(C)OO[C@H]3C[C@@]12CC[C@H]3OC(=O)c1ccc(C2CCCCC2)cc1 [compound 16, (3S,4R,6aS,10aS)-7,7,10a-trimethyl-10-oxooctahydro-3H-3,6a-methanobenzo[c][1,2]dioxocin-4-yl 4-cyclohexylbenzoate] | 0.11 | – | – | > 50 | 13 | –
NCCCC(N)(C(=O)O)C(F)F (stereo not shown) [Eflornithine, reference compound] | – | – | 59 | – | – | –
CC1(C)CCC(=O)C2(C)OOC3CC12CCC3(O)CO (stereo not shown) [Merulin B (6), Merulin B] | – | – | 8 | – | – | –
CC1(C)CCC(=O)[C@@]2(C)OO[C@H]3C[C@@]12CC[C@H]3OC(=O)c1cc2ccccc2oc1=O [compound 14, (3S,4R,6aS,10aS)-7,7,10a-trimethyl-10-oxooctahydro-3H-3,6a-methanobenzo[c][1,2]dioxocin-4-yl 2-oxo-2H-chromene-3-carboxylate] | 0.42 | – | – | > 50 | > 50 | –
CC1(C)C=CC(=O)[C@@]2(C)OO[C@@H]3C[C@]12CCC3(O)CO (stereo partly shown) [Merulin C (7), Merulin C] | – | – | 0.8 | – | – | –
N=C(N)c1ccc(OCCCCCOc2ccc(C(=N)N)cc2)cc1 [Pentamidine, reference compound] | – | – | 0.03 | – | – | –
Cc1ccc(C(=O)Nc2ccc(S(=O)(=O)O)c3cc(S(=O)(=O)O)cc(S(=O)(=O)O)c23)cc1NC(=O)c1cccc(NC(=O)Nc2cccc(C(=O)Nc3cc(C(=O)Nc4ccc(S(=O)(=O)O)c5cc(S(=O)(=O)O)cc(S(=O)(=O)O)c45)ccc3C)c2)c1 [Suramin, reference compound] | – | – | 0.007 | – | – | –
CC(=O)O[C@@H]1CC[C@@]23C[C@@H]1OO[C@]2(C)C(=O)CCC3(C)C [compound 10, (3S,4R,6aS,10aS)-7,7,10a-trimethyl-10-oxooctahydro-3H-3,6a-methanobenzo[c][1,2]dioxocin-4-yl acetate] | – | 14 | – | – | – | –
CC1(C)CCC(=O)[C@@](C)(O)[C@]12CC[C@@H](O)[C@@H](O)C2 [compound 9, (1S,6S,8S,9R)-1,8,9-trihydroxy-1,5,5-trimethylspiro[5.5]undecan-2-one] | – | > 50 | – | – | – | complete loss of activity
CC(C)(C)C(=O)O[C@@H]1CC[C@@]23C[C@@H]1OO[C@]2(C)C(=O)CCC3(C)C [compound 11, (3S,4R,6aS,10aS)-7,7,10a-trimethyl-10-oxooctahydro-3H-3,6a-methanobenzo[c][1,2]dioxocin-4-yl pivalate] | – | 8 | – | – | – | –

Further lines, with some results ahead:

IC50 [2, 4] [µM] | IC50 [2, 5] [µM] | IC50 ([2]; Table 3, read-out: T.b.b IC50) [µM] | SMILES | IC50 [1] [µM] | IC50 [3] [µM] | activity against T. brucei brucei in words ([2]; initial SAR series)
0.16 | – | – | CC1(C)CCC(=O)[C@@]2(C)OO[C@H]3C[C@@]12CC[C@H]3OC(=O)CC1CCNCC1 [compound 28, (3S,4R,6aS,10aS)-7,7,10a-trimethyl-10-oxooctahydro-3H-3,6a-methanobenzo[c][1,2]dioxocin-4-yl 2-(piperidin-4-yl)acetate] | > 50 | 21 | –
0.19 | – | – | CC1(C)CCC(=O)[C@@]2(C)OO[C@H]3C[C@@]12CC[C@H]3OC(=O)c1cc(-c2ccccc2)no1 [compound 22, (3S,4R,6aS,10aS)-7,7,10a-trimethyl-10-oxooctahydro-3H-3,6a-methanobenzo[c][1,2]dioxocin-4-yl 3-phenylisoxazole-5-carboxylate] | 20 | > 50 | –
0.33 | – | – | CC1(C)CCC(=O)[C@@]2(C)OO[C@H]3C[C@@]12CC[C@H]3OC(=O)c1ccsc1 [compound 20, (3S,4R,6aS,10aS)-7,7,10a-trimethyl-10-oxooctahydro-3H-3,6a-methanobenzo[c][1,2]dioxocin-4-yl thiophene-3-carboxylate] | > 50 | 16 | –
> 20 | – | – | CC1(C)CCC(=O)[C@@]2(C)OO[C@H]3C[C@@]12CC[C@H]3OC(=O)CN [compound 29, (3S,4R,6aS,10aS)-7,7,10a-trimethyl-10-oxooctahydro-3H-3,6a-methanobenzo[c][1,2]dioxocin-4-yl 2-aminoacetate] | > 50 | > 50 | –
0.16 | – | – | CC(C)(C)OC(=O)N1CCC(CC(=O)O[C@@H]2CC[C@@]34C[C@@H]2OO[C@]3(C)C(=O)CCC4(C)C)CC1 [compound 27, tert-butyl-4-(2-oxo-2-(((3S,4R,6aS,10aS)-7,7,10a-trimethyl-10-oxooctahydro-3H-3,6a-methanobenzo[c][1,2]dioxocin-4-yl)oxy)ethyl)piperidine-1-carboxylate] | > 50 | 33 | –
0.66 | – | – | CC1(C)CCC(=O)[C@@]2(C)OO[C@H]3C[C@@]12CC[C@H]3OC(=O)c1cnc(Br)s1 [compound 19, (3S,4R,6aS,10aS)-7,7,10a-trimethyl-10-oxooctahydro-3H-3,6a-methanobenzo[c][1,2]dioxocin-4-yl 2-bromothiazole-5-carboxylate] | > 50 | 13 | –
0.54 | – | – | CC1(C)CCC(=O)[C@@]2(C)OO[C@H]3C[C@@]12CC[C@H]3OC(=O)c1cc(Cl)sc1Cl [compound 21, (3S,4R,6aS,10aS)-7,7,10a-trimethyl-10-oxooctahydro-3H-3,6a-methanobenzo[c][1,2]dioxocin-4-yl 2,5-dichlorothiophene-3-carboxylate] | > 50 | 21 | –
0.27 | – | – | CC1(C)CCC(=O)[C@@]2(C)OO[C@H]3C[C@@]12CC[C@H]3OC(=O)c1ccc(N2CCOCC2)cc1 [compound 24, (3S,4R,6aS,10aS)-7,7,10a-trimethyl-10-oxooctahydro-3H-3,6a-methanobenzo[c][1,2]dioxocin-4-yl 4-morpholinobenzoate] | > 50 | 12 | –
1.8 | – | – | CC1(C)CCC(=O)[C@@]2(C)OO[C@H]3C[C@@]12CC[C@H]3OC(=O)c1ccno1 [compound 23, (3S,4R,6aS,10aS)-7,7,10a-trimethyl-10-oxooctahydro-3H-3,6a-methanobenzo[c][1,2]dioxocin-4-yl isoxazole-5-carboxylate] | > 50 | > 50 | –
0.95 | – | – | CC1(C)CCC(=O)[C@@]2(C)OO[C@H]3C[C@@]12CC[C@H]3OC(=O)c1ccncc1 [compound 25, (3S,4R,6aS,10aS)-7,7,10a-trimethyl-10-oxooctahydro-3H-3,6a-methanobenzo[c][1,2]dioxocin-4-yl isonicotinate] | > 50 | > 50 | –
0.21 | – | – | CC1(C)CCC(=O)[C@@]2(C)OO[C@H]3C[C@@]12CC[C@H]3OC(=O)c1ccc(N2CCCCC2)nc1 [compound 26, (3S,4R,6aS,10aS)-7,7,10a-trimethyl-10-oxooctahydro-3H-3,6a-methanobenzo[c][1,2]dioxocin-4-yl 6-(piperidin-1-yl)nicotinate] | 15 | 24 | –
